As usually defined, the IC50 is the concentration that inhibits the measured activity by half. A lower IC50 goes with inhibition by little substance.

Where only a bound is given, the exact number is not on record here.

For assay [1], the system named is human colon cancer cell lines HCT-116. The experiment in a line: Determination of apoptosis (DNA fragmentation into nucleosomes, Cell Death Detection ELISA PLUS). Type of assay: cell-based. Particulars: HCT-116, at 10 μM. The protocol: To stablish whether the antiproliferative activity of the compounds of the present invention is due to an apoptotic process, and not merely to a necrotic process, the generation of DNA fragments associated to histones (mono- and oligonucleosomes) was determined after incubation of the human colon cancer cell lines HCT-116 with the compounds of the present invention at different concentrations. DNA fragmentation into nucleosomes, which is an indicator of apoptosis phenomena, was quantified by a sandwich immunoassay using monoclonal antibodies directed against DNA and histones (Cell Death Detection ELISA^PLUS, Roche Diagnostics, cat #1920685). The quantity of fragmented DNA was expressed with the Enrichment Factor (EF) parameter, which is a coefficient of absorbance of nucleosomes liberated in the cytosol of the cells cultured in the presence of the products compared with control cells.
In general terms: An ELISA detects its analyte on a solid surface through an enzyme-linked reagent.

Assay [2] has as its system human colon adenocarcinoma cell lines (HCT-116). The experiment in a line: Determination of cell proliferation inhibition (Sulforodamine B). Type of assay: cell-based. The conditions noted are these: HCT-116, 48 hours treatment. As to the method: The inhibitory capacity of cell proliferation of the compounds was determined in two human colon adenocarcinoma cell lines (HCT-116) obtained at the ATCC (American Type Collection). The cells were seeded in 96-well plates and kept at 37° C. in a CO2 heater for 24 hours to allow cell-substrate-adhesion. Subsequently, cells were treated with the products under study at concentrations comprised between 1 and 100 μM for 48 hours. After the treatment period, the medium was removed and cells were dyed with Sulforodamine B. Finally, decolouration of the dyed cells was carried out with Tris base 10 mM and the plates were read at 493-530 nm in a plate reader. IC50 was calculated as the product concentration inducing a growth inhibition of the 50% compared with control cells not treated.

For another assay, the target named is T1, COX-2 (Homo sapiens, UniProt P35354).
T1 sequence (P35354 18-604): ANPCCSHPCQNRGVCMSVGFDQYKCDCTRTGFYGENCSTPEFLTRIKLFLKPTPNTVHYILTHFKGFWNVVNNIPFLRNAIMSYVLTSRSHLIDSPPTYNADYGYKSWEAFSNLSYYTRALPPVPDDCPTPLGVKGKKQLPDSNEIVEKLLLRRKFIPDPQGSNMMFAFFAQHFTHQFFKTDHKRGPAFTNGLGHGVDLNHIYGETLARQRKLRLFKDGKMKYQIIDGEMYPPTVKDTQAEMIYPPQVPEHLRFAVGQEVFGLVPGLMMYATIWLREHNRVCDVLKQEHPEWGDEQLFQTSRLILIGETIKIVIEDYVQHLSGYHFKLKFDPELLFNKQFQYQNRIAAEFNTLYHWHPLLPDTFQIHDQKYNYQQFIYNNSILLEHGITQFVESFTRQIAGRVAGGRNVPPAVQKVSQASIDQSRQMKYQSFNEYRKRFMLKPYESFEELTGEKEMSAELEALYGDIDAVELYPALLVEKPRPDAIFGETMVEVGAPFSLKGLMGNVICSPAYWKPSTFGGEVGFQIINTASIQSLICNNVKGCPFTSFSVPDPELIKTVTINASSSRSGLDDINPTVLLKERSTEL
The experiment in a line: COX-2 inhibition. Type of assay: biochemical.

In the case of `Cc1ccc(-c2cc(C(F)(F)F)nn2-c2ccc(S(N)(=O)=O)cc2)cc1` [Celecoxib, reference compound], in assay [1], the “EF (Apoptosis induction, Enrichment Factor)” value (shortened to “EF”) is “+ (EF < 3)”. This compound registered an IC50 in assay [2] greater than 25 µM.

For the compound `COc1ccc(-c2nc3ncccn3c2-c2ccc(SC)cc2)cc1` [Example 8, 2-(4-Methoxyphenyl)-3-(4-methylsulfanylphenyl)imidazo[1,2-a]pyrimidine], the IC50 on COX-2 was 5 to 25 µM; in assay [2] it was less than 5 µM. Moreover, the “EF” value in assay [1] is “+++ (EF > 6)”.

With `CSc1ccc(-c2c(-c3ccc(Br)cc3)nc3ncccn23)cc1` [Example 13, 2-(4-Bromophenyl)-3-(4-methylsulfanylphenyl)imidazo[1,2-a]pyrimidine], the values for the IC50 (at COX-2; in assay [2]) were greater than 25 µM and less than 5 µM, respectively. The “EF” value in assay [1] is “+++ (EF > 6)”.

On to `CSc1ccc(-c2nc3ncccn3c2-c2ccc(SC)c(Cl)c2)cc1` [Example 86, 3-(3-Chloro-4-methylsulfanylphenyl)-2-(4-methylsulfanylphenyl)imidazo[1,2-a]pyrimidine], for which the “EF” value in assay [1] is listed as “+++ (EF > 6)”. For the same compound, in assay [2], the IC50 was less than 5 µM.

As to `COc1ccc(-c2nc3ncccn3c2-c2ccc(SC)c(Cl)c2)cc1` [Example 124, 3-(3-Chloro-4-methylsulfanylphenyl)-2-(4-methoxyphenyl)imidazo[1,2-a]pyrimidine], the IC50 is greater than 25 µM against COX-2 and less than 5 µM in assay [2]. Moreover, in assay [1], the “EF” value is given as “+++ (EF > 6)”.

In the case of `COc1ccc(-c2nc3nc(C)ccn3c2-c2ccc(SC)c(Cl)c2)cc1` [Example 125, 3-(3-Chloro-4-methylsulfanylphenyl)-2-(4-methoxyphenyl)-7-methylimidazo[1,2-a]pyrimidine], the “EF” value in assay [1] is recorded as “+++ (EF > 6)”. Besides, the concentration for half-maximal inhibition (IC50) in assay [2] is 5 to 25 µM.

Take `CSc1ccc(-c2c(-c3cccc(C)c3)nc3ncccn23)cc1Br` [Example 132, 3-(3-Bromo-4-methylsulfanylphenyl)-2-m-tolylimidazo[1,2-a]pyrimidine]: the concentration for half-maximal inhibition (IC50) against COX-2 is greater than 25 µM; in assay [2] it was less than 5 µM. For the same compound, in assay [1], the “EF” value was “+++ (EF > 6)”.

`CSc1ccc(-c2c(-c3ccc(Cl)cc3)nc3ncccn23)cc1Br` [Example 136, 3-(3-Bromo-4-methylsulfanylphenyl)-2-(4-chlorophenyl)imidazo[1,2-a]pyrimidine]: the values for the half-maximal inhibitory concentration (IC50) (against COX-2; in assay [2]) were greater than 25 µM and less than 5 µM, respectively. Moreover, the “EF” value in assay [1] is “+++ (EF > 6)”.

With `COc1ccc(-c2nc3ncccn3c2-c2ccc(SC)c(C)c2)cc1` [Example 138, 2-(4-Methoxyphenyl)-3-(3-methyl-4-methylsulfanylphenyl)imidazo[1,2-a]pyrimidine], the IC50 was greater than 25 µM against COX-2 and less than 5 µM in assay [2]. In assay [1], the “EF” value is listed as “+++ (EF > 6)”.

Take `CCCSc1ccc(-c2c(-c3ccc(OC)cc3)nc3ncccn23)cc1Cl` [Example 148, 3-(3-Chloro-4-propylsulfanylphenyl)-2-(4-methoxyphenyl)imidazo[1,2-a]pyrimidine]: the 50% inhibitory concentration (IC50) was greater than 25 µM at COX-2 and less than 5 µM in assay [2]. Besides, the “EF” value in assay [1] was “+++ (EF > 6)”.

Consider `COc1ccc(-c2nc3ncccn3c2-c2ccc(SC(C)C)cc2)cc1` [Example 151, 3-(4-Isopropylsulfanylphenyl)-2-(4-methoxyphenyl)imidazo[1,2-a]pyrimidine], for which the half-maximal inhibitory concentration (IC50) is greater than 25 µM at COX-2 and less than 5 µM in assay [2]. In addition, in assay [1], the “EF” value is recorded as “+++ (EF > 6)”.

For the compound `Cc1ccc(-c2nc3ncccn3c2-c2ccc(SC(C)C)c(Cl)c2)cc1` [Example 153, 3-(3-Chloro-4-isopropylsulfanylphenyl)-2-p-tolylimidazo[1,2-a]pyrimidine], the IC50 at COX-2 is greater than 25 µM; in assay [2], less than 5 µM. The “EF” value in assay [1] is on record as “+++ (EF > 6)”.

Turning to `CSc1ccc(-c2nc3ncccn3c2-c2ccc(SC(C)C)c(Cl)c2)cc1` [Example 157, 3-(3-Chloro-4-isopropylsulfanylphenyl)-2-(4-methylsulfanylphenyl)imidazo[1,2-a]pyrimidine], the IC50 against COX-2 is greater than 25 µM; in assay [2], less than 5 µM. In addition, the “EF” value in assay [1] is recorded as “+++ (EF > 6)”.

`COc1ccc(-c2nc3ncccn3c2-c2ccc([S+](C)[O-])c(Cl)c2)cc1` (stereo not drawn) [Example 189, 3-(3-Chloro-4-methanesulfinylphenyl)-2-(4-methoxyphenyl)imidazo[1,2-a]pyrimidine]: the IC50 was greater than 25 µM on COX-2 and 5 to 25 µM in assay [2]. Besides, the “EF” value in assay [1] is “+++ (EF > 6)”.

As to `CSc1ccc(-c2c(-c3ccc(Cl)cc3)nc3ncccn23)cc1Cl` [Example 238, 3-(3-Chloro-4-methylsulfanylphenyl)-2-(4-chlorophenyl)imidazo[1,2-a]pyrimidine], the IC50 was greater than 25 µM against COX-2 and less than 5 µM in assay [2]. Besides, the “EF” value in assay [1] is listed as “+++ (EF > 6)”.

With `CSc1ccc(-c2c(-c3ccc(F)cc3)nc3ncccn23)cc1Cl` [Example 240, 3-(3-Chloro-4-methylsulfanylphenyl)-2-(4-fluorophenyl)imidazo[1,2-a]pyrimidine], the IC50 was greater than 25 µM on COX-2 and 5 to 25 µM in assay [2]. Further, the “EF” value in assay [1] is recorded as “++ (3 < EF < 6)”.

Turning to `COc1ccc(-c2nc3ncccn3c2-c2ccc3c(c2)C(C)(C)CCS3)cc1` [Example 244, 3-(4,4-Dimethylthiochroman-6-yl)-2-(4-methoxyphenyl)imidazo[1,2-a]pyrimidine], the values for the half-maximal inhibitory concentration (IC50) (against COX-2; in assay [2]) were greater than 25 µM and less than 5 µM, respectively. Also, the “EF” value in assay [1] is “+++ (EF > 6)”.

On to `CC1=C(CC(=O)O)c2cc(F)ccc2/C1=C\c1ccc(S(C)(=O)=O)cc1` [Exisulind, reference compound], for which the IC50 (against COX-2; in assay [2]) was greater than 25 µM throughout. Moreover, in assay [1], the “EF” value is recorded as “+ (EF < 3)”.

The record behind these values is patent US20060189631A1, “Substituted imidazopyrimidines for the prevention and treatment of cancer” (LABORATORIOS S.A.L.V.A.T., S.A., priority 2003, published 2006).
